According to PMC12136037, “Type II kinase inhibitors that target Parkinson’s disease–associated LRRK2” (Science Advances, 2025):
Where “and” joins values, the source holds several entries; their conditions need not be identical. Equal entries are not always repeated.

Experiments:
LRRK2^RCKW = target: T1, LRRK2^RCKW (Homo sapiens, UniProt Q5S007); assay: Biochemical LRRK2 activity assay (PhosphoSense, AssayQuant SOX peptide AQT0615); conditions: for normalized response (LRRK2 activity): normalized to 0% (no kinase) and 100% (no inhibitor) control, two singlicate columns per compound
T1 construct: LRRK2 R1327 to E2527; His6-Z-tag (TEV cleavable) (N, cleaved yes); host or cells: Sf9 insect cells (baculovirus)
T1 sequence (Q5S007 1327-2527): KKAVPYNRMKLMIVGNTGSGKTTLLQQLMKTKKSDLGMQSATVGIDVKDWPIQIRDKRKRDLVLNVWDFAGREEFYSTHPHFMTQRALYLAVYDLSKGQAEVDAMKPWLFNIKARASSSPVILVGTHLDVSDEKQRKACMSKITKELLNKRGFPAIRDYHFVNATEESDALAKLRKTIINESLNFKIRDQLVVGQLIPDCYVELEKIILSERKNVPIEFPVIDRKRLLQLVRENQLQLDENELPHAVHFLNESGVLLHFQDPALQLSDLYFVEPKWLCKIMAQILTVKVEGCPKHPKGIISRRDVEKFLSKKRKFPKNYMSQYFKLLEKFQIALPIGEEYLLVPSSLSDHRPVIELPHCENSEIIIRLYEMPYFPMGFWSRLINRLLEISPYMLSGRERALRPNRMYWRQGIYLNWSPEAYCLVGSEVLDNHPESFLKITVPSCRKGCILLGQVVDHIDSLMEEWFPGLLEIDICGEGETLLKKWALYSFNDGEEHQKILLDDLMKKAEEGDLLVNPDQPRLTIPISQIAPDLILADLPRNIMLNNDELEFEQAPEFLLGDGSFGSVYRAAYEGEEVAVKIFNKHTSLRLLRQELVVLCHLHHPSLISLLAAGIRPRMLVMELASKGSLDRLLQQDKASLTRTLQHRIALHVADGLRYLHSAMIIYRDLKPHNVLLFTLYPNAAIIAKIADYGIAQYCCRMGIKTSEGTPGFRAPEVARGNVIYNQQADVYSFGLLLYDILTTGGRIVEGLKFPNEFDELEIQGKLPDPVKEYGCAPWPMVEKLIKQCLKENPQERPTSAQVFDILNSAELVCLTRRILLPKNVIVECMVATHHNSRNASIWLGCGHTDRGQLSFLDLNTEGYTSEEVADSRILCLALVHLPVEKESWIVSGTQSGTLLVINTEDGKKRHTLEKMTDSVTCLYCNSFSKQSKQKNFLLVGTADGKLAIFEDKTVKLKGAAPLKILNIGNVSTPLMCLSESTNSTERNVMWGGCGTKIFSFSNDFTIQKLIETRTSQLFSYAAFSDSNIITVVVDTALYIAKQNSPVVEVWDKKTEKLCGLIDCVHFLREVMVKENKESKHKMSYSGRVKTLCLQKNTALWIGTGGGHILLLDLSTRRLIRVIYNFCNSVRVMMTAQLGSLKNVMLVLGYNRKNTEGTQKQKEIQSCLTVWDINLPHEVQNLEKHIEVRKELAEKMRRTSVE
Method: Two wells per compound were used as 0% (without protein and compound) and 100% (without compound) control. […] The 0% control wells were filled with 10 μl of pure reaction buffer. With the ECHO, 5 nl of 100 mM ATP was pipetted into each well, the plates were centrifuged at 1500g for 2 min, and the reaction was incubated at room temperature for 4 hours. The fluorescence of the SOX-peptide after 360-nm excitation was measured at 487-nm emission with a PHERAstar plate reader (BMG Labtech). The IC50 values were calculated from a nonlinear regression of the log[inhibitor] versus the normalized response with GraphPad Prism 8 (www.graphpad.com/, RRID:SCR_002798).

LRRK2^KW = target: T2, LRRK2^KW (Homo sapiens, UniProt Q5S007); assay: DSF thermal stabilization of LRRK2^KW; format: binding; conditions: DSF, LRRK2^KW, 10 μM inhibitor
T2 construct: LRRK2 R1847 to E2527; His6-Z-tag (TEV cleavable) (N, cleaved yes); host or cells: Sf9 insect cells (baculovirus)
T2 sequence (Q5S007 1847-2527): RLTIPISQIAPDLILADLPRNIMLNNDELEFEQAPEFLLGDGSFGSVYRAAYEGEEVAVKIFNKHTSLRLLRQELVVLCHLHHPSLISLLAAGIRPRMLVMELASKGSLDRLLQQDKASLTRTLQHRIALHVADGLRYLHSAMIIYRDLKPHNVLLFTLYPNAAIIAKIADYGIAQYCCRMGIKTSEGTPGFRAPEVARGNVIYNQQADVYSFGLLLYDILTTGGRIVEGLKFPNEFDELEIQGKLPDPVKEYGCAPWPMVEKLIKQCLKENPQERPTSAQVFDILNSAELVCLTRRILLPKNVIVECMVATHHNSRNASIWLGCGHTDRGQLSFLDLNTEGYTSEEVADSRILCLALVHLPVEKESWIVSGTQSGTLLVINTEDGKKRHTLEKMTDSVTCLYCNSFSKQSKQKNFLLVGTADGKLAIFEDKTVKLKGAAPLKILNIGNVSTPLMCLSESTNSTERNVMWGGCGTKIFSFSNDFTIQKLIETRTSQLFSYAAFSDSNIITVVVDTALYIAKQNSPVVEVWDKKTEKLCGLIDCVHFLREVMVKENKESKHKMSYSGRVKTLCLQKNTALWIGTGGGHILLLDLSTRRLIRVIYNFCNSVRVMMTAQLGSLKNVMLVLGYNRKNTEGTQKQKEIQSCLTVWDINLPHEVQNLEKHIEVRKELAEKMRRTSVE
Method: To characterize binding between small molecules and LRRK2^KW, induced thermal stabilization was measured by DSF according to previously established protocols ([47]). In brief, LRRK2^KW was diluted to 4 μM in 20 mM Hepes (pH 7.4), 150 mM NaCl, 0.5 mM TCEP, 0.5% glycerol, 20 μM GDP, and 2.5 mM MgCl2, and SYPRO Orange was added (1:1000, MilliporeSigma). Inhibitor (10 μM) to be tested was added to a final sample volume of 20 μl per well of a 96-well plate (white, Starlab). […] The fluorescence was plotted against the temperature, and the melting point (Tm) was determined as the minimum of the first derivative relative to the control.

[1] = LRRK2^RCKW kinase activity, in vitro

IC50 (LRRK2^RCKW; [1])	normalized response (LRRK2 activity) (LRRK2^RCKW; log[inhibitor(mol)] -5.12494)	normalized response (LRRK2 activity) (LRRK2^RCKW; log[inhibitor(mol)] -5.60206)	normalized response (LRRK2 activity) (LRRK2^RCKW; log[inhibitor(mol)] -6.30103)	normalized response (LRRK2 activity) (LRRK2^RCKW; log[inhibitor(mol)] -6.90309)	normalized response (LRRK2 activity) (LRRK2^RCKW; log[inhibitor(mol)] -7.30103)	normalized response (LRRK2 activity) (LRRK2^RCKW; log[inhibitor(mol)] -7.60206)	normalized response (LRRK2 activity) (LRRK2^RCKW; log[inhibitor(mol)] -8.09691)	normalized response (LRRK2 activity) (LRRK2^RCKW; log[inhibitor(mol)] -8.61979)	normalized response (LRRK2 activity) (LRRK2^RCKW; log[inhibitor(mol)] -9.09691)	normalized response (LRRK2 activity) (LRRK2^RCKW; log[inhibitor(mol)] -9.39794)	∆Tm (K) (LRRK2^KW)	normalized response (LRRK2 activity) (LRRK2^RCKW; log[inhibitor(mol)] -4.82391)	IC50 (LRRK2^RCKW; Table S2, bound printed in μM under head IC50 [nM])	Compound
				115.444% and 117.007%	105.55% and 105.293%	108.325% and 105.046%	100.105% and 95.8379%	94.7466% and 91.6315%	101.92% and 85.7909%	98.761% and 96.3918%	1.5 K			COc1cc(S(C)(=O)=O)ccc1Nc1nc(N(C)C)c2c(-c3cccc(NC(=O)Nc4cc(C(C)(C)C)nn4-c4ccc5ncccc5c4)c3)c[nH]c2n1 [Compound 35]
	99.0859% and 93.2217%	93.6133% and 98.8538%	94.4738% and 97.6114%	97.3406% and 97.6501%	98.4526% and 101.585%	103.828% and 100.546%	94.8702% and 94.0339%	91.8535% and 95.7453%	97.0119% and 90.234%	103.089% and 99.1004%	3.0 K	115.049% and 93.8598%	> 15 µM	O=C(Nc1ccc(F)cc1)C1(C(=O)Nc2cccc(-c3ccc4n[nH]cc4c3)c2)CC1 [Compound 47]

More lines, now with the values behind:

Compound	IC50 (LRRK2^RCKW; [1])	normalized response (LRRK2 activity) (LRRK2^RCKW; log[inhibitor(mol)] -5.12494)	normalized response (LRRK2 activity) (LRRK2^RCKW; log[inhibitor(mol)] -5.60206)	normalized response (LRRK2 activity) (LRRK2^RCKW; log[inhibitor(mol)] -6.30103)	normalized response (LRRK2 activity) (LRRK2^RCKW; log[inhibitor(mol)] -6.90309)	normalized response (LRRK2 activity) (LRRK2^RCKW; log[inhibitor(mol)] -7.30103)	normalized response (LRRK2 activity) (LRRK2^RCKW; log[inhibitor(mol)] -7.60206)	normalized response (LRRK2 activity) (LRRK2^RCKW; log[inhibitor(mol)] -8.09691)	normalized response (LRRK2 activity) (LRRK2^RCKW; log[inhibitor(mol)] -8.61979)	normalized response (LRRK2 activity) (LRRK2^RCKW; log[inhibitor(mol)] -9.09691)	normalized response (LRRK2 activity) (LRRK2^RCKW; log[inhibitor(mol)] -9.39794)	∆Tm (K) (LRRK2^KW)	normalized response (LRRK2 activity) (LRRK2^RCKW; log[inhibitor(mol)] -4.82391)	IC50 (LRRK2^RCKW; Table S2, bound printed in μM under head IC50 [nM])
CN1CCc2cc(NC(=O)C3(C(=O)Nc4cccc(-c5c[nH]c6ncnc(N7CCOCC7)c56)c4)CC3)ccc2C1 [Compound 10]	3.18 ± 0.134 µM	28.5996% and 28.8703%	54.9087% and 59.3757%	85.68% and 83.1467%	102.663% and 58.1284%	103.229% and 99.9077%	100.894% and 96.1562%	96.775% and 100.111%	99.9803% and 105.134%	138.579% and 106.168%	136.224% and 108.416%	4.3 K		
COc1cc(S(C)(=O)=O)ccc1Nc1nc(N(C)C)c2c(-c3cccc(NC(=O)Nc4cc(C(C)(C)C)nn4-c4ccc(C)cc4)c3)c[nH]c2n1 [Compound 33]						124.559% and 124.399%	116.776% and 118.915%	103.198% and 104.843%	103.872% and 98.2729%	102.243% and 101.201%	101.448% and 104.602%	1.0 K		
COc1cc(C(=O)N2CCOCC2)c(F)cc1Nc1nc(N(C)C)c2c(-c3cccc(NC(=O)Nc4cc(C(C)(C)C)nn4-c4ccc(C)cc4)c3)c[nH]c2n1 [Compound 34]	2.82 ± 1.7 µM	30.8718% and 33.6962%	50.116% and 50.3008%	30.7392% and 30.2826%	79.3769% and 75.1697%	94.0291% and 93.4725%	99.2059% and 99.0146%	90.4133% and 94.0334%	94.5074% and 96.3707%	98.4515% and 93.6442%	99.1494% and 99.7973%	0.0 K	44.1151% and 42.1018%	
